The target in this test is Bcl-2-related protein A1 (Mus musculus) (UniProt Q07440). The test can be described thus: Bfl-1 inhibitors blocking BH3 peptide binding, confirmation, biochemical, TR-FRET, mouse Bfl-1 (AID 621). As to conditions: TR-FRET Bfl-1 BH3 peptide binding displacement. (In TR-FRET formats the signal depends on donor and acceptor labels being close together.)
Chain of Bcl-2-related protein A1 (Mus musculus) (Q07440 whole entry, looked up): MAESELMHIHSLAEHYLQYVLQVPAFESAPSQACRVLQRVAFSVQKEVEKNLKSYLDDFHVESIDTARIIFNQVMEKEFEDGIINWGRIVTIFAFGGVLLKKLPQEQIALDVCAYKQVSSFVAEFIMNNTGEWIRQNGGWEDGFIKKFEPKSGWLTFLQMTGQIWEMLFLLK

Broadly, the IC50 is the concentration that inhibits the measured activity by half. `CCn1c(SCC(=O)O)nc2sc3c(c2c1=O)CCC3`: the IC50 was 14.5 µM.
The same measure for `Nc1ccc2ncccc2c1N`: 3.49 µM.

Source of the values: PubChem BioAssay AID621 (Sanford-Burnham Center for Chemical Genomics, 2007).
